According to US20240025862A1, “SUBSTITUTED N-PHENYLURACILS AND SALTS THEREOF, AND USE THEREOF AS HERBICIDAL ACTIVE SUBSTANCES” (Bayer Aktiengesellschaft, priority 2020, published 2024):

Legend:
Type in all cases: in vivo
[1] = test system: Abutilon theophrasti (ABUTH); test: Post-emergence herbicidal action, greenhouse pot test; details: Abutilon theophrasti, 504 h, rated visually after about 3 weeks vs untreated controls, 100% = plants have died; for pest or weed control at 5 g/ha: read-out: Post-emergence action at 5 g/ha against ABUTH in %; for pest or weed control at 20 g/ha: read-out: Post-emergence action at 20 g/ha against ABUTH in %
How it was run: (§1)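 Greenhouse-grown weeds in sandy loam were sprayed post-emergence at the one-leaf stage, 2–3 weeks after sowing. Compounds were formulated as WP or EC in water with 0.5% additive at 600 l/ha, at rates of 20 g/ha or less. Visual rating after about 3 weeks used a scale from 0% (like untreated control) to 100% (plants dead).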

[2] = test system: Lolium rigidum (LOLRI); test: as above; details: for pest or weed control at 20 g/ha: Lolium rigidum, 504 h, dosage 20 g/ha, read-out: Post-emergence action against LOLRI in %
How it was run: as §1

[3] = test system: Viola tricolor (VIOTR); test: as above; details: Viola tricolor, 504 h, read-out: Post-emergence action against VIOTR
How it was run: as §1

[4] = test system: Pharbitis purpurea (PHBPU); test: as above; details: Ipomoea purpurea, 504 h, read-out: Post-emergence action against PHBPU in %; for pest or weed control at 5 g/ha: dosage 5 g/ha; for pest or weed control at 20 g/ha: dosage 20 g/ha
How it was run: as §1

[5] = test system: Avena fatua (AVEFA); test: as above; details: rated visually after about 3 weeks vs untreated controls, 100% = plants have died; for pest or weed control at 20 g/ha: Avena fatua, 504 h, read-out: Post-emergence action at 20 g/ha against AVEFA in %
How it was run: as §1

[6] = test system: Veronica persica (VERPE); test: as above; details: Veronica persica, 504 h, read-out: Post-emergence action against VERPE
How it was run: as §1

[7] = test system: Amaranthus retroflexus (AMARE); test: as above; details: Amaranthus retroflexus, 504 h, rated visually after about 3 weeks vs untreated controls, 100% = plants have died; for pest or weed control at 5 g/ha: read-out: Post-emergence action at 5 g/ha against AMARE in %; for pest or weed control at 20 g/ha: read-out: Post-emergence action at 20 g/ha against AMARE in %
How it was run: as §1

[8] = test system: Setaria viridis (SETVI); test: Post-emergence herbicidal action, greenhouse pot test (also comparative test C); details: Setaria viridis, 504 h; for pest or weed control at 20 g/ha: read-out: Post-emergence action against SETVI; for pest or weed control at 5 g/ha: dosage 5 g/ha
How it was run: (§2)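 Visual rating against untreated controls, about 3 weeks after spraying, from 0% (like control) to 100% (plants dead). Weeds were treated at the one-leaf stage, 2–3 weeks after sowing in sandy loam, with aqueous WP/EC spray containing 0.5% additive at 600 l/ha. Doses were ≤20 g/ha, or ≤5 g/ha for comparative test C.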

[9] = test system: Matricaria inodora (MATIN); test: as above; details: Tripleurospermum inodorum, 504 h, read-out: Post-emergence action against MATIN in %; for pest or weed control at 5 g/ha: dosage 5 g/ha; for pest or weed control at 20 g/ha: dosage 20 g/ha
How it was run: as §2

[10] = test system: Alopecurus myosuroides (ALOMY); test: as above; details: rated visually after about 3 weeks vs untreated controls, 100% = plants have died; for pest or weed control at 5 g/ha / pest or weed control at 20 g/ha: Alopecurus myosuroides, 504 h; for pest or weed control at 5 g/ha: read-out: Post-emergence action at 5 g/ha against ALOMY in %; for pest or weed control at 20 g/ha: read-out: Post-emergence action at 20 g/ha against ALOMY in %
How it was run: as §2

[11] = test system: Echinochloa crus-galli (ECHCG); test: as above; details: for pest or weed control at 5 g/ha / pest or weed control at 20 g/ha: Echinochloa crus-galli, 504 h, read-out: Post-emergence action against ECHCG in %; for pest or weed control at 5 g/ha: dosage 5 g/ha; for pest or weed control at 20 g/ha: dosage 20 g/ha
How it was run: as §2

[12] = test system: Brassica napus (BRSNW); test: Post-emergence crop plant compatibility, greenhouse pot test; details: for Post-emergence action against BRSNW (crop plant compatibility): vs untreated controls; for Post-emergence action at 5 g/ha against BRSNW in %: crop plant compatibility, observed effects on crop plant in comparison to untreated controls
How it was run: (§3)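 Crop plants grown in sandy loam in the greenhouse were sprayed post-emergence at the one-leaf stage, 2–3 weeks after sowing, with WP or EC formulations as aqueous suspension/emulsion plus 0.5% additive at 600 l/ha. Damage was rated visually about 3 weeks later versus untreated controls (0% = like control, 100% = plants dead).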

[13] = test system: Triticum aestivum (TRZAS); test: as above; details: vs untreated controls
How it was run: as §3

[14] = test system: Oryza sativa (ORYSA); test: Post-emergence crop plant compatibility, greenhouse pot test (also comparative test C); details: 1.25 g/ha, vs untreated controls
How it was run: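 Rice and other crops sprayed post-emergence at one-leaf stage (2–3 weeks after sowing) with WP or EC formulations plus 0.5% additive at 600 l/ha water. Visual rating about 3 weeks later versus untreated controls (100% = dead, 0% = like control); suffixes a–c denote different doses.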

[15] = test system: Polygonum convolvulus (POLCO); test: Post-emergence herbicidal action, greenhouse pot test; details: Fallopia convolvulus, 504 h, read-out: Post-emergence action against POLCO in %
How it was run: as §1

[16] = read-out: Post-emergence action against SETVI in %

Row | SMILES | pest or weed control at 5 g/ha [1] | pest or weed control at 20 g/ha [1] | pest or weed control at 20 g/ha [2] | pest or weed control at 5 g/ha [3] | pest or weed control at 20 g/ha [3] | pest or weed control at 5 g/ha [4] | pest or weed control at 20 g/ha [4] | pest or weed control at 20 g/ha [5] | pest or weed control at 5 g/ha [6] | pest or weed control at 20 g/ha [6] | pest or weed control at 5 g/ha [7] | pest or weed control at 20 g/ha [7] | pest or weed control at 20 g/ha [8] | pest or weed control at 5 g/ha [8, 16] | pest or weed control at 5 g/ha [9] | pest or weed control at 20 g/ha [9] | pest or weed control at 5 g/ha [10] | pest or weed control at 20 g/ha [10] | pest or weed control at 5 g/ha [11] | pest or weed control at 20 g/ha [11] | further results
1 | Cn1c(C(F)(F)F)cc(=O)n(-c2cc(Oc3ccccc3OCC(=O)OCc3ccccn3)c(Cl)cc2F)c1=O [I.7-276, Pyridin-2-ylmethyl (2-{2-chloro-4-fluoro-5-[3-methyl-2,6-dioxo-4-(trifluoromethyl)-3,6-dihydropyrimidin-1(2H)-yl]phenoxy}phenoxy)acetate] | 100% | 100% | 100% | 100% | 100% | 100% | 100% | 90% | 100% | 100% | 100% | 100% | 100% | 100% | 100% | 100% | 100% | 100% | 100% | 100% | pest or weed control at 1.25 g/ha ([1]; 1.25 g/ha, read-out: Post-emergence action at 1.25 g/ha against ABUTH in %): 100%; Post-emergence action at 5 g/ha against LOLRI in % ([2]; 5 g/ha, rated visually after about 3 weeks vs untreated controls, 100% = plants have died): 80%; pest or weed control at 1.25 g/ha ([3]; 1.25 g/ha): 100%; pest or weed control at 1.25 g/ha ([4]; dosage 1.25 g/ha): 100%; pest or weed control at 1.25 g/ha ([6]; 1.25 g/ha): 100%; pest or weed control at 1.25 g/ha ([7]; 1.25 g/ha, read-out: Post-emergence action at 1.25 g/ha against AMARE in %): 100%; pest or weed control at 1.25 g/ha ([8]; dosage 1.25 g/ha, read-out: Post-emergence action against SETVI in %): 100%; pest or weed control at 1.25 g/ha ([9]; dosage 1.25 g/ha): 100%; Post-emergence action at 1.25 g/ha against ALOMY in % ([10]; 1.25 g/ha): 90%; Post-emergence action at 1.25 g/ha against ECHCG in % ([11]; 1.25 g/ha, rated visually after about 3 weeks vs untreated controls, 100% = plants have died): 90%; Post-emergence action against BRSNW (crop plant compatibility) ([12]; 1.25 g/ha): 20%; Post-emergence action at 5 g/ha against BRSNW in % [12]: 20%; Post-emergence action against BRSNW (crop plant compatibility) ([12]; 20 g/ha): 20%; Post-emergence action against TRZAS (crop plant compatibility) ([13]; 1.25 g/ha): 20%; Post-emergence action against TRZAS (crop plant compatibility) ([13]; 5 g/ha): 20%; Post-emergence action against ORYSA (crop plant compatibility) [14]: 0%
2 | Cn1c(C(F)(F)F)cc(=O)n(-c2cc(Oc3ccccc3OCC(=O)OCC#N)c(Cl)cc2F)c1=O [I.7-176, Cyanomethyl (2-{2-chloro-4-fluoro-5-[3-methyl-2,6-dioxo-4-(trifluoromethyl)-3,6-dihydropyrimidin-1(2H)-yl]phenoxy}phenoxy)acetate] | 100% | 100% | 80% | 100% | 100% | 100% | 100% | 100% | 100% | 100% | 100% | 100% | 100% | 100% | 90% | 100% | 100% | 100% | 100% | 100% | pest or weed control at 5 g/ha ([15]; dosage 5 g/ha): 100%; pest or weed control at 20 g/ha ([15]; dosage 20 g/ha): 100%; Post-emergence action at 5 g/ha against AVEFA in % ([5]; 5 g/ha): 80%; Post-emergence action at 5 g/ha against BRSNW in % [12]: 20%; Post-emergence action against BRSNW (crop plant compatibility) ([12]; 20 g/ha): 20%
